Laboratory results from publication PMC6277767, “Broad and Region-Specific Impacts of the Synthetic Cannabinoid CP 55,940 in Adolescent and Adult Female Mouse Brains” (Frontiers in Molecular Neuroscience, 2018).

Test system: CD1 female mouse brain lipidome
Experiment: Brain-region lipid levels (HPLC/MS/MS lipidomics) 2 h after single i.p. 3 mg/kg CP 55,940 vs vehicle
Assay type: in vivo
Set-up: N-arachidonoyl phenylalanine level, Mean / N-stearoyl tryptophan level, Mean / N-stearoyl proline level, Mean / N-stearoyl leucine level, Mean / N-stearoyl phenylalanine level, Mean / N-stearoyl serine level, Mean / N-stearoyl methionine level, Mean: unit: moles per gram
Protocol: The Bloomington Institutional Animal Care and Use Committee of Indiana University reviewed and approved the animal procedures. Female mice from the CD1 strain were utilized to match our study examining THC’s effects on the brain lipidome ([Leishman et al., 2018]). Mice were given a single i.p. injection of either 3 mg/kg CP or 1:1:18 cremophor:ethanol:saline vehicle (please refer to the section “3 mg/kg CP Is Relevant for Synthetic Cannabinoid Abuse and Has Stronger Effects on the Female Mouse Brain Lipidome During Adolescence” for a justification of dose and use of female mice). Three different age groups were given injections: PND 35 and PND 50 adolescents, and adult mice (PND 113). At least eight mice in each age group received CP and at least eight received vehicle. Matching the THC study time course ([Leishman et al., 2018]), mice were sacrificed via rapid decapitation 2 h after injection. Brains were immediately removed and flash-frozen in liquid nitrogen, and then stored at -80°C until dissections were performed. Brains were dissected on an ice-cold dissection plate into the following regions: STR, HIPP, CER, THAL, CTX, HYP, MID, and STEM. These abbreviations for these brain areas will be used exclusively when discussing the results generated by these specific dissections. Each dissected area was immediately placed in liquid nitrogen and then stored at -80°C until used for lipid extraction.
Tissue extracts were performed as previously described ([Bradshaw et al., 2006]; [Stuart et al., 2013]; [Raboune et al., 2014]; [Leishman et al., 2016a],[b], [2017], [2018]). First, samples were shock frozen in liquid nitrogen, weighed, and transferred to a centrifuge tube. The mass of the largest sample was multiplied by 50 to determine how many milliliters of HPLC-grade methanol (Fisher, Fair Lawn, NJ, United States) to add. Then, samples were spiked with 500 pmol deuterium-labeled NAGly (d8NAGly; Cayman Chemical, Ann Arbor, MI, United States). Samples were placed on ice in darkness for 2 h then individually homogenized and centrifuged at 19,000 × g for 20 min at 20°C. Supernatants were diluted with HPLC water (purified in house) to make a solution of 75% water, 25% supernatant. Lipids were partially purified on C18 solid phase extraction columns (Agilent, Palo Alto, CA, United States). A series of four elutions with 1.5 mL of 60%, 75%, 85%, and 100% methanol were collected ([Stuart et al., 2013]; [Leishman et al., 2016a],[b], [2018]).
As previously described ([Bradshaw et al., 2006]; [Tan et al., 2006]; [Smoum et al., 2010]; [Stuart et al., 2013]; [Tortoriello et al., 2013]; [Raboune et al., 2014]; [Leishman et al., 2016a],[b], [2017], [2018]), samples were analyzed using an Applied Biosystems API 3000 triple quadrupole mass spectrometer with electrospray ionization (Foster City, CA, United States). Using an Agilent XDB-C18 reversed phase analytical column and optimized mobile phase gradients, 20 μL from each elution were chromatographed. Two Shimadzu 10ADvp pumps (Columbia, MD, United States) provided the pressure for gradient elution. Mobile phase A: 20% methanol, 80% water (v/v) and 1 mM ammonium acetate (Sigma, St. Louis, MO, United States). Mobile phase B: 100% methanol, 1 mM ammonium acetate. Every method run began with 0% mobile phase B, reached 100% mobile phase B flowing at 0.2 mL/min, and gradually returned to 0% mobile phase B.
This screening library will be referred to as the lipidome when discussing data from this study. HPLC/MS/MS data were analyzed using Analyst software (Applied Biosystems) ([Bradshaw et al., 2006]; [Tan et al., 2006]; [Stuart et al., 2013]; [Tortoriello et al., 2013]; [Raboune et al., 2014]; [Leishman et al., 2016a],[b], [2017], [2018]). Chromatograms (Supplementary Figure 3) were generated by determining the retention time of analytes from the analytical column with a [M-1] or [M+1] parent peak and a fragmentation peak corresponding to the programmed values. […]

[1] = hippocampus, PND 35 WT female mice, 3mg/kg CP 55,940
[2] = hypothalamus, PND 50, 3mg/kg CP 55,940
[3] = hypothalamus, PND 50 female mice, 3mg/kg CP 55,940

## CCCCCCC(C)(C)c1ccc([C@@H]2C[C@H](O)CC[C@H]2CCCO)c(O)c1 [CP 55,940]
[1]
  N-arachidonoyl tryptophan level, Mean: BDL
  N-arachidonoyl tyrosine level, Mean: 7.88E-13
  N-docosahexaenoyl GABA level, Mean: 9.2E-13
  N-docosahexaenoyl alanine level, Mean: 5.16E-12
  N-docosahexaenoyl ethanolamine level, Mean: 3.15E-11
  N-docosahexaenoyl glycine level, Mean: 1.89E-11
  N-docosahexaenoyl leucine level, Mean: 7.64E-13
  N-docosahexaenoyl methionine level, Mean: BDL
  N-docosahexaenoyl phenylalanine level, Mean: 1.25E-12
  N-docosahexaenoyl proline level, Mean: BDL
  N-docosahexaenoyl serine level, Mean: 2.42E-11
  N-docosahexaenoyl tryptophan level, Mean: BDL
  N-docosahexaenoyl tyrosine level, Mean: PISSR
  N-docosahexaenoyl valine level, Mean: PISSR
  N-linoleoyl GABA level, Mean: 4.99E-13
  N-linoleoyl alanine level, Mean: 2.58E-12
  N-linoleoyl ethanolamine level, Mean: 6.76E-11
  N-linoleoyl glycine level, Mean: 5.29E-12
  N-linoleoyl leucine level, Mean: 3.89E-13
  N-linoleoyl methionine level, Mean: BDL
  N-linoleoyl phenylalanine level, Mean: 2.51E-13
  N-linoleoyl proline level, Mean: BDL
  N-linoleoyl serine level, Mean: 8.04E-11
  N-linoleoyl tryptophan level, Mean: BDL
  N-linoleoyl tyrosine level, Mean: PISSR
  N-linoleoyl valine level, Mean: PISSR
  N-nervonoyl valine level, Mean: BDL
  N-oleoyl GABA level, Mean: 2.89E-12
  N-oleoyl alanine level, Mean: 1.01E-11
  N-oleoyl dopamine level, Mean: BDL
  N-oleoyl ethanolamine level, Mean: 1.48E-10
  N-oleoyl glycine level, Mean: 2.1E-11
  N-oleoyl leucine level, Mean: 1.71E-12
  N-oleoyl methionine level, Mean: 8.45E-13
  N-oleoyl phenylalanine level, Mean: 1.23E-12
  N-oleoyl proline level, Mean: PISSR
  N-oleoyl serine level, Mean: 3.91E-10
  N-oleoyl tryptophan level, Mean: PISSR
  N-oleoyl tyrosine level, Mean: 3.7E-13
  N-oleoyl valine level, Mean: 7.17E-13
  N-palmitoyl GABA level, Mean: 5.66E-12
  N-palmitoyl alanine level, Mean: 1.96E-11
  N-palmitoyl ethanolamine level, Mean: 6.04E-11
  N-palmitoyl glycine level, Mean: 4.65E-11
  N-palmitoyl leucine level, Mean: 4.19E-12
  N-palmitoyl methionine level, Mean: PISSR
  N-palmitoyl phenylalanine level, Mean: 2.85E-12
  N-palmitoyl proline level, Mean: 1.75E-12
  N-palmitoyl serine level, Mean: 7.46E-11
  N-palmitoyl tryptophan level, Mean: 4.02E-13
  N-palmitoyl tyrosine level, Mean: 1.11E-12
  N-palmitoyl valine level, Mean: 1.58E-12
  N-stearoyl GABA level, Mean: 5.59E-12
  N-stearoyl alanine level, Mean: 1.75E-11
  N-stearoyl ethanolamine level, Mean: 1.72E-11
  N-stearoyl glycine level, Mean: 2.5E-11
  N-stearoyl leucine level, Mean: 1.77E-12
  N-stearoyl methionine level, Mean: 1.74E-12
  N-stearoyl phenylalanine level, Mean: 2.56E-12
  N-stearoyl serine level, Mean: 3.13E-11
  N-stearoyl tryptophan level, Mean: 1.25E-12
  N-stearoyl tyrosine level, Mean: 1.27E-13
  Oleic acid level, Mean: 2.69E-09
  PGE2 level, Mean: 1.12E-09
  PhosphoLEA level, Mean: 2.75E-11
  THC level, Mean: BDL
[2]
  2-arachidonoyl glycerol, Direction (relative to Veh): ↓
  N-arachidonoyl phenylalanine, Direction (relative to Veh): ↓
  N-palmitoyl leucine, Direction (relative to Veh): ↑
  PGF2α Direction (relative to Veh): ↑
hypothalamus, PND 50, 3mg/kg CP 55,940, ANOVA p .005
  PGF2α Magnitude (x Veh level): 1.49 x Veh level
hypothalamus, PND 50, 3mg/kg CP 55,940, ANOVA p .013
  N-arachidonoyl phenylalanine, Magnitude (x Veh level): 0.70 x Veh level
hypothalamus, PND 50, 3mg/kg CP 55,940, ANOVA p .022
  N-palmitoyl leucine, Magnitude (x Veh level): 1.34 x Veh level
hypothalamus, PND 50, 3mg/kg CP 55,940, ANOVA p .033
  2-arachidonoyl glycerol, Magnitude (x Veh level): 0.80 x Veh level
[3]
  2-arachidonoyl glycerol level, Mean: 2.57E-10
  2-linoleoyl glycerol level, Mean: 1E-10
  2-oleoyl glycerol level, Mean: 1.24E-09
  2-palmitoyl glycerol level, Mean: 2.63E-09
  6-ketoPGF1α level, Mean: 1.26E-11
  11-OH-THC level, Mean: BDL
  11-nor-9-carboxyTHC level, Mean: BDL
  Arachidonic acid level, Mean: 1.92E-10
  Cannabidiol level, Mean: BDL
  Linoleic acid level, Mean: 1.86E-10
  N- stearoyl valine level, Mean: PISSR
  N-arachidonoyl GABA level, Mean: 6.6E-12
  N-arachidonoyl alanine level, Mean: PISSR
  N-arachidonoyl dopamine level, Mean: BDL
  N-arachidonoyl ethanolamine level, Mean: 2.54E-11
  N-arachidonoyl glycine level, Mean: 4.44E-13
  N-arachidonoyl methionine level, Mean: BDL
  N-arachidonoyl phenylalanine level, Mean: 3.4E-13
  N-arachidonoyl proline level, Mean: BDL
  N-arachidonoyl serine level, Mean: PISSR
  N-arachidonoyl taurine level, Mean: 6.54E-12
  N-arachidonoyl tryptophan level, Mean: BDL
  N-arachidonoyl tyrosine level, Mean: BDL
  N-docosahexaenoyl GABA level, Mean: PISSR
  N-docosahexaenoyl alanine level, Mean: PISSR
  N-docosahexaenoyl ethanolamine level, Mean: 3.64E-11
  N-docosahexaenoyl glycine level, Mean: 1.54E-13
  N-docosahexaenoyl leucine level, Mean: PISSR
